pIC50: −log10 of the molar value.
What follows are compounds tested against Thymidine phosphorylase (Escherichia coli K-12, UniProt P07650) (assay: Inhibition of Escherichia coli thymidine phosphorylase pretreated for 10 mins followed by substrate addition measured at 10 mins interval for 30 mins by spectrophotometric method). Details: not given; call rule not given here.
Sequence of Thymidine phosphorylase (P07650 whole entry): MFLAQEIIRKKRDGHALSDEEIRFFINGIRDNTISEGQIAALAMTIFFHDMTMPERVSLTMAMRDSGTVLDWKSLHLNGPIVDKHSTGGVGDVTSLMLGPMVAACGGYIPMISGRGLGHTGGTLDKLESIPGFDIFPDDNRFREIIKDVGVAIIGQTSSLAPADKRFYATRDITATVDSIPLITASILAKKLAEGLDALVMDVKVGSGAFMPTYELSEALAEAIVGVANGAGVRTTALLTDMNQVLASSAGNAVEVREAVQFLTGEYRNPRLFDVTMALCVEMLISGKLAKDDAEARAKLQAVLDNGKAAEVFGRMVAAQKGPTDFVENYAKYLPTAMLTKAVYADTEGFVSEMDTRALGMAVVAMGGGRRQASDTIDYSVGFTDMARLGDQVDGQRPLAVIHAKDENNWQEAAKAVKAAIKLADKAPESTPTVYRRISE

In the case of Clc1ccc2[nH]cc(C(c3ccc(-c4nnc(-c5ccncc5)o4)cc3)c3c[nH]c4ccc(Cl)cc34)c2c1, the IC50 was “Not Active”.
With O=[N+]([O-])c1ccc(-c2nnc(-c3ccc(C(c4c[nH]c5ccc(Cl)cc45)c4c[nH]c5ccc(Cl)cc45)cc3)o2)cc1 the IC50 was “Not Active”.
With Cc1ccc(-c2nnc(-c3ccc(C(c4c[nH]c5ccc(Cl)cc45)c4c[nH]c5ccc(Cl)cc45)cc3)o2)cc1 the IC50 was “Not Active”.
Cc1ccccc1-c1nnc(-c2ccc(C(c3c[nH]c4ccc(Cl)cc34)c3c[nH]c4ccc(Cl)cc34)cc2)o1 was tested, and the IC50 was “Not Active”.
For Cc1cccc(-c2nnc(-c3ccc(C(c4c[nH]c5ccc(Cl)cc45)c4c[nH]c5ccc(Cl)cc45)cc3)o2)c1, the IC50 was “Not Active”.
In the case of Clc1ccc2[nH]cc(C(c3ccc(-c4nnc(-c5cccnc5)o4)cc3)c3c[nH]c4ccc(Cl)cc34)c2c1, the IC50 was “Not Active”.
O=[N+]([O-])c1cccc(-c2nnc(-c3ccc(C(c4c[nH]c5ccc(Cl)cc45)c4c[nH]c5ccc(Cl)cc45)cc3)o2)c1 was tested, and the IC50 was “Not Active”.

Same assay, conditions: read-out: IC50

Compared with Fc1cccc(-c2nnc(-c3ccc(C(c4c[nH]c5ccc(Cl)cc45)c4c[nH]c5ccc(Cl)cc45)cc3)o2)c1, Oc1cccc(-c2nnc(-c3ccc(C(c4c[nH]c5ccc(Cl)cc45)c4c[nH]c5ccc(Cl)cc45)cc3)o2)c1 is 0.26 log units lower in pIC50: 4.53 for the first, 4.27 for the second.

First: Fc1ccc(-c2nnc(-c3ccc(C(c4c[nH]c5ccc(Cl)cc45)c4c[nH]c5ccc(Cl)cc45)cc3)o2)cc1
Second: Oc1ccc(-c2nnc(-c3ccc(C(c4c[nH]c5ccc(Cl)cc45)c4c[nH]c5ccc(Cl)cc45)cc3)o2)cc1
The pIC50 of the first is 0.43 log units higher: 5.04 for the first, 4.61 for the second. The first is the more potent here.

Going from Oc1ccc(-c2nnc(-c3ccc(C(c4c[nH]c5ccc(Cl)cc45)c4c[nH]c5ccc(Cl)cc45)cc3)o2)cc1O to COc1ccc(-c2nnc(-c3ccc(C(c4c[nH]c5ccc(Cl)cc45)c4c[nH]c5ccc(Cl)cc45)cc3)o2)cc1O, the pIC50 falls from 4.92 to 4.47 (0.45 log units). The first is the more potent here.

First: Oc1cccc(-c2nnc(-c3ccc(C(c4c[nH]c5ccc(Cl)cc45)c4c[nH]c5ccc(Cl)cc45)cc3)o2)c1O
Second: Oc1ccccc1-c1nnc(-c2ccc(C(c3c[nH]c4ccc(Cl)cc34)c3c[nH]c4ccc(Cl)cc34)cc2)o1
The pIC50 of the first is 0.67 log units higher: 5.03 for the first, 4.36 for the second. The first is the more potent here.

Going from Clc1ccc2[nH]cc(C(c3ccc(-c4nnc(-c5ccccn5)o4)cc3)c3c[nH]c4ccc(Cl)cc34)c2c1 to Fc1ccccc1-c1nnc(-c2ccc(C(c3c[nH]c4ccc(Cl)cc34)c3c[nH]c4ccc(Cl)cc34)cc2)o1, the pIC50 rises from 4.42 to 4.76 (0.34 log units).

COc1ccc(O)c(-c2nnc(-c3ccc(C(c4c[nH]c5ccc(Cl)cc45)c4c[nH]c5ccc(Cl)cc45)cc3)o2)c1 and COc1ccc(-c2nnc(-c3ccc(C(c4c[nH]c5ccc(Cl)cc45)c4c[nH]c5ccc(Cl)cc45)cc3)o2)c(O)c1 are within 0.2 log units of each other in pIC50: 4.34 for the first, 4.45 for the second.

Clc1ccc(-c2nnc(-c3ccc(C(c4c[nH]c5ccc(Cl)cc45)c4c[nH]c5ccc(Cl)cc45)cc3)o2)cc1 and Clc1cccc(-c2nnc(-c3ccc(C(c4c[nH]c5ccc(Cl)cc45)c4c[nH]c5ccc(Cl)cc45)cc3)o2)c1 are within 0.2 log units of each other in pIC50: 4.34 for the first, 4.26 for the second.

Compared with Clc1ccc2[nH]cc(C(c3ccc(-c4nnc(-c5ccccc5Cl)o4)cc3)c3c[nH]c4ccc(Cl)cc34)c2c1, O=[N+]([O-])c1ccccc1-c1nnc(-c2ccc(C(c3c[nH]c4ccc(Cl)cc34)c3c[nH]c4ccc(Cl)cc34)cc2)o1 is 0.34 log units lower in pIC50: 4.53 for the first, 4.19 for the second.

Compared with Oc1ccc(O)c(-c2nnc(-c3ccc(C(c4c[nH]c5ccc(Cl)cc45)c4c[nH]c5ccc(Cl)cc45)cc3)o2)c1, Oc1ccc(-c2nnc(-c3ccc(C(c4c[nH]c5ccc(Cl)cc45)c4c[nH]c5ccc(Cl)cc45)cc3)o2)c(O)c1 is 0.25 log units higher in pIC50: 5.21 for the first, 5.46 for the second.
